Experimental data: paper PMC11091220, “Metabolism-driven in vitro/in vivo disconnect of an oral ERɑ VHL-PROTAC” (Communications Biology, 2024)
Values joined by “and” are separate entries in the source; they are usually repeats but may differ in a detail not shown here. Equal values may be shown once. Read-outs that look alike come from different tables or passages of the source.

Experiments:
ERα = target: T1, ERα (Homo sapiens, UniProt P03372); assay: ERα high throughput imaging degradation assay in MCF7 cells; assay type: cell-based; conditions: for Dmax: MCF7; for DC50: MCF7 cells, 20 to 24 hours; for Degradation vs fulvestrant: listed as Cmp 7
T1 construct: endogenous in cells; host or cells: MCF7 (also MCF7 engineered to express Cas9)
T1 sequence (P03372 1-595): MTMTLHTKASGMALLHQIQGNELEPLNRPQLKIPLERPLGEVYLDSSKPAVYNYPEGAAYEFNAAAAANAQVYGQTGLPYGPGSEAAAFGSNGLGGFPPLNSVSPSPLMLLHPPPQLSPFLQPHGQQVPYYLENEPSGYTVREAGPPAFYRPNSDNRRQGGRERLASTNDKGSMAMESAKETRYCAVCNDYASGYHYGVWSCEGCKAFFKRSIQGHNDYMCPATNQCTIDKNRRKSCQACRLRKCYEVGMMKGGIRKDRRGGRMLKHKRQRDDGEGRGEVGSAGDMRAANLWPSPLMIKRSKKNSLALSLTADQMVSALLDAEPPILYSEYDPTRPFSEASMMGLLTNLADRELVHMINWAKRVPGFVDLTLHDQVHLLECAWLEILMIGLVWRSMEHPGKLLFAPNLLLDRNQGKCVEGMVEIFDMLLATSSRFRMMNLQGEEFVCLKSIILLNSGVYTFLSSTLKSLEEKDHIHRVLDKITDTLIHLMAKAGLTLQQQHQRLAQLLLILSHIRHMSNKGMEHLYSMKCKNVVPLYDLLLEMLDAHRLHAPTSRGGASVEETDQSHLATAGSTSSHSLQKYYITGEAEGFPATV
Description: Cells were fixed, permeabilised and stained with anti-ERα (rabbit clone SP1, Thermo) and anti-PR (mouse clone PgR 636, Dako) antibodies followed by secondary AlexaFluor 594 goat anti-rabbit and AlexaFluor 488 goat anti-mouse IgG antibodies. Imaging was using the Thermo Cellinsight scanner and average fluorescence intensity was analysed using Genedata.

[1] = target: T2, recombinant human ERα ligand binding domain (LBD) (Homo sapiens, UniProt P03372); assay: ERα binding assay (LanthaScreen TR-FRET competition)
T2 construct: purchased Invitrogen PV4543
T2 sequence (P03372 311-547 limits assumed): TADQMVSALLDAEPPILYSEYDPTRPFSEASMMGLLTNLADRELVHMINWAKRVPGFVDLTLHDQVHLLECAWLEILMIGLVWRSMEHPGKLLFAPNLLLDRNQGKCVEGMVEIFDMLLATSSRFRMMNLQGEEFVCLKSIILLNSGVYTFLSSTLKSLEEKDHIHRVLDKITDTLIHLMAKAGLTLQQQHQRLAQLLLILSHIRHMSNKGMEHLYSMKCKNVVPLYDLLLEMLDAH
Description: The ability of compounds to bind to isolated ERα Ligand binding domain (ERα–LBD (GST)) was assessed in competition assays using a LanthaScreenTM Time-Resolved Fluorescence Resonance Energy Transfer (TR-FRET) detection end-point. For the LanthaScreen TR-FRET endpoint, a suitable fluorophore (Fluormone ES2, Product code P2645) and recombinant human ERα ligand binding domain (LBD) (product code PV4543) were purchased from Invitrogen and used to measure compound binding. A terbium-labelled anti-GST antibody (Product code PV3551) is used to indirectly label the receptor by binding to its GST tag, and competitive binding is detected by a test compounds’ ability to displace the fluorescent ligand resulting in a loss of TR-FRET signal between the Tb-anti-GST antibody and the tracer. The assay was performed with all reagent additions carried out using the Beckman Coulter BioRAPTR FRD microfluidic workstation: […]

[2] = Mouse hepatocyte intrinsic clearance; assay type: in vitro ADME; conditions: for hepatocyte CLint at 1 µM: male, CD-1, mouse, hepatocytes
Description: Livers from CD-1 male mice weighing 30-35 g were digested and perfused using D-Hanks solution containing EDTA or collagenase. Once digested the liver was transferred to a petri dish and the hepatocytes were prepared by washing and centrifuging with a Leibovitz-15 medium containing 50% isotonic percoll. A cell viability >80% was required to progress the cells. The test compound was prepared to 10 mM in 100% DMSO and further diluted to 100 μM in 100% acetonitrile. The hepatocyte incubations were prepared in Leibovitz’s L-15 Medium pH 7.4 containing 1 million hepatocytes/mL and a final compound concentration of 1 µM. Cell viability was determined using a Cellometer Vision and >80% cell viability was required to proceed with the compound incubation. The compound/cell solution (250 µL) was incubated for 2 h at 37 °C and shaken at 900 rpm on an Eppendorf Thermomixer Comfort plate shaker. Samples (20 µL) were taken at 0.5, 5, 15, 30, 45, 60, 80, 100, and 120 min and quenched with 100 μL of 100% ice-cold acetonitrile. Samples were shaken at 800 rpm for 2 min and centrifuged at 4000 rpm for 20 min at 4 °C to pellet precipitated protein. The supernatant fraction was diluted 1:5 with deionised water, shaken at 1000 rpm for 2 min, and further diluted 1:1 with deionised water. Samples were analysed by LC-MS/MS[17].

[3] = target: ESR1-Nanoluciferase fusion protein (Homo sapiens, UniProt P03372); assay: ERα nanoluciferase degradation assay; assay type: cell-based; conditions: for DC50: 24 hours, read-out: ERα nano-luciferase degradation DC50; for IC50: Table 1 source data, mean, read-out: ERa nanocluciferase degradation DC50 (nM), Mean IC50; for Dmax: read-out: ERα nano-luciferase Dmax
ESR1-Nanoluciferase fusion protein, sequence (P40337 whole entry, one chain of several, the tested form may be a part): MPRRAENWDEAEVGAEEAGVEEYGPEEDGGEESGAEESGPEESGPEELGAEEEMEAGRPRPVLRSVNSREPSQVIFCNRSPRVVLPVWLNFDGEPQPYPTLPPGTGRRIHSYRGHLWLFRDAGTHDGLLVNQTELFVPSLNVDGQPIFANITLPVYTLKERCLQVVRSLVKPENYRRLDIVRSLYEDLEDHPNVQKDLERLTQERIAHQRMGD
Description: MCF7 pTRIPZ Cas9 cells stably transfected with pSMPNeo dual Luc ESR1 vector (containing ESR1-Nanoluciferase fusion protein/reporter and a Firefly luciferase reporter) were seeded into T175 flasks and incubated for 48 hours in RPMI 1640 media containing 10% (v/v) foetal bovine serum (FBS) and 2 mM L-Glutamine. The cells were then seeded at 20000 cells/well into 384-well plates containing compounds at concentrations ranging from 3.125 µM to 15.9 pM. Following 24 hours incubation (37 °C, 5% CO2), media was removed and ONE-Glow^TM EX luciferase reagent (Promega) was added to each well. Firefly luminescence was measured after 5 minutes using an Envision (PerkinElmer). NanoDLR^TM Stop and Glo® reagent (Promega) was added and incubated for ten minutes (room temperature), before measuring Nano luminescence using the Envision. Wells containing vehicle or 3 µM Fulvestrant were used to normalise data, and degradation of ESR1-Nanoluciferase was analysed using Genedata Screener.

[4] = Table S4 source data, read-out: ERa degradation, Dmax (%)
[5] = Table S4 source data, mean, read-out: ERa binding, Mean
[6] = mean ± s.d., read-out: ERα binding IC50
[7] = 0% vehicle control, 100% fulvestrant, read-out: ERα imaging Dmax
[8] = pH 7.4, read-out: muHeps (mouse hepatocytes) clearance
[9] = MCF7, read-out: ERα imaging Dmax, 0% vehicle control, 100% fulvestrant

## Cc1ncsc1-c1ccc(CNC(=O)[C@@H]2C[C@@H](O)CN2C(=O)[C@@H](NC(=O)COCCCc2cccc(COc3cc(F)c([C@@H]4c5[nH]c6ccccc6c5C[C@@H](C)N4CC(C)(C)F)c(F)c3)c2)C(C)(C)C)cc1 [Compound 14]
ERα; [4]
  Dmax: 103%
ERα
  DC50: 4.9 nM

## Cc1ncsc1-c1ccc(CNC(=O)[C@@H]2C[C@@H](O)CN2C(=O)[C@@H](NC(=O)COCCOCCCCOc2cc(F)c([C@@H]3c4[nH]c5ccccc5c4C[C@@H](C)N3CC(C)(C)F)c(F)c2)C(C)(C)C)cc1 [Compound 9]
[1]; [5]
  IC50: 0.6 nM
ERα
  DC50: 0.5 ± 0.1 nM
ERα; Table S4 source data
  ERa degradation, Dmax (%): 100%
[2]; mouse hepatocytes, Table S4 source data
  muHeps, Mean Clint (mL/min/10^6 cells): 14 mL/min/10^6 cells

## Cc1ncsc1-c1ccc(CNC(=O)[C@@H]2C[C@@H](O)CN2C(=O)[C@@H](NC(=O)COCc2cccc(CCCOc3cc(F)c([C@@H]4c5[nH]c6ccccc6c5C[C@@H](C)N4CC(C)(C)F)c(F)c3)c2)C(C)(C)C)cc1 [Compound 15]
ERα; [4]
  Dmax: 106%
ERα
  DC50: 14 nM

## Cc1ncsc1-c1ccc(CNC(=O)[C@@H]2C[C@@H](O)CN2C(=O)[C@@H](NC(=O)C2(OCCCOCCCOc3cc(F)c([C@@H]4c5[nH]c6ccccc6c5C[C@@H](C)N4CC(C)(C)F)c(F)c3)CC2)C(C)(C)C)cc1 [Compound 13]
[1]; [5]
  IC50: 1 nM
ERα; [4]
  Dmax: 96%
ERα
  DC50: 2 nM

## Cc1ncsc1-c1ccc(CNC(=O)[C@@H]2C[C@@H](O)CN2C(=O)[C@@H](NC(=O)COCCOCCOCCOCCOc2cc(F)c([C@@H]3c4[nH]c5ccccc5c4C[C@@H](C)N3CC(C)(C)F)c(F)c2)C(C)(C)C)cc1 [Compound 4]
[1]; [6]
  IC50: 6.3 nM
ERα; [7]
  Dmax: 101%
ERα
  DC50: 3.2 nM
[2]; [8]
  hepatocyte CLint at 1 µM: 41 µL/min/1e6 cells

## Cc1ncsc1-c1ccc(CNC(=O)[C@@H]2C[C@@H](O)CN2C(=O)[C@@H](NC(=O)COCCOc2cc(F)c([C@@H]3c4[nH]c5ccccc5c4C[C@@H](C)N3CC(C)(C)F)c(F)c2)C(C)(C)C)cc1 [Compound 1]
[1]; [6]
  IC50: 1.3 nM
ERα; [7]
  Dmax: 89 ± 1%
ERα
  DC50: 0.6 ± 1.2 nM
[2]; [8]
  hepatocyte CLint at 1 µM: 22 µL/min/1e6 cells

## Cc1ncsc1-c1ccc(CNC(=O)[C@@H]2C[C@@H](O)CN2C(=O)[C@@H](NC(=O)COCCN2CCN(CCOc3cc(F)c([C@@H]4c5[nH]c6ccccc6c5C[C@@H](C)N4CC(C)(C)F)c(F)c3)CC2)C(C)(C)C)cc1 [Compound 6]
[3]
  DC50: 46 ± 27 nM
  IC50: 46 nM
  Dmax: 88 ± 1%
[1]; [6]
  IC50: 1.3 nM
ERα; [9]
  Dmax: 100 ± 0.5%
ERα
  DC50: 0.5 ± 0.4 nM
[2]; [8]
  hepatocyte CLint at 1 µM: 11 µL/min/1e6 cells

## Cc1ncsc1-c1ccc(CNC(=O)[C@@H]2C[C@@H](O)CN2C(=O)[C@@H](NC(=O)COCCOCCOCCOc2cc(F)c([C@@H]3c4[nH]c5ccccc5c4C[C@@H](C)N3CC(C)(C)F)c(F)c2)C(C)(C)C)cc1 [Compound 3]
[3]
  DC50: 3.1 nM
  IC50: 3.1 nM
  Dmax: 124%
[1]; [6]
  IC50: 0.3 nM
ERα; [9]
  Dmax: 99 ± 2%
ERα
  DC50: 0.3 ± 0.1 nM
[2]; [8]
  hepatocyte CLint at 1 µM: 31 µL/min/1e6 cells

## Cc1ncsc1-c1ccc(CNC(=O)[C@@H]2C[C@@H](O)CN2C(=O)[C@@H](NC(=O)COCCCOCCOc2cc(F)c([C@@H]3c4[nH]c5ccccc5c4C[C@@H](C)N3CC(C)(C)F)c(F)c2)C(C)(C)C)cc1 [Compound 10]
[1]; [5]
  IC50: 0.5 nM
ERα; [4]
  Dmax: 100%
ERα
  DC50: 0.4 nM
[2]; pH 7.4, mouse hepatocytes, Table S4 source data, read-out: muHeps, Mean Clint (mL/min/10^6 cells)
  hepatocyte CLint at 1 µM: 19 µL/min/1e6 cells
[2]; [8]
  hepatocyte CLint at 1 µM: 20 ± 1 µL/min/1e6 cells

## Cc1ncsc1-c1ccc(CNC(=O)[C@@H]2C[C@H](O)CN2C(=O)[C@@H](NC(=O)COCCCOCCCOc2cc(F)c([C@@H]3c4[nH]c5ccccc5c4C[C@@H](C)N3CC(C)(C)F)c(F)c2)C(C)(C)C)cc1 [Compound 7]
[3]
  DC50: > 3000 nM
  IC50: > 3000 nM
[1]; [6]
  IC50: 1 nM
ERα; Log M -6.5, MCF7, 24 h
  Degradation vs fulvestrant: 64.0% and 68.3%
ERα; Log M -7.0
  Degradation vs fulvestrant: 68.3% and 71.6% and 59.3% and 58.8%
ERα; Log M -7.5
  Degradation vs fulvestrant: 65.0% and 59.3% and 59.1% and 57.9%
ERα; Log M -7.9
  Degradation vs fulvestrant: 65.6% and 48.2% and 57.7% and 56.0%
ERα; Log M -8.5
  Degradation vs fulvestrant: 49.3% and 36.8% and 53.9% and 47.6%
ERα; Log M -9.0
  Degradation vs fulvestrant: 32.2% and 32.7% and 45.9% and 42.5%
ERα; [9]
  Dmax: ~65%
ERα
  DC50: 3.1 nM

## Cc1ncsc1-c1ccc(CNC(=O)[C@@H]2C[C@@H](O)CN2C(=O)[C@@H](NC(=O)COCCOCCOc2cc(F)c([C@@H]3c4[nH]c5ccccc5c4C[C@@H](C)N3CC(C)(C)F)c(F)c2)C(C)(C)C)cc1 [Compound 2]
[1]; [6]
  IC50: 0.6 nM
ERα; [7]
  Dmax: 94%
ERα
  DC50: 0.8 nM
[2]; [8]
  hepatocyte CLint at 1 µM: 40 µL/min/1e6 cells
